Measurements reported in the supplement of paper PMC10307832.

What was measured:
Test in all cases: relative viability (nuclei count vs DMSO), 5 days (fraction); higher = more cells survive
NCI-H2085 = tested on: NCI-H2085
In short: (§1)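 Cells from lung cancer lines were seeded into 1536-well plates and, one day later, dosed by pin tool. Treatments were either a single drug or a fixed dose of an anchor drug with five library-drug doses (not always all listed) in √10 steps. After 5 days, nuclei were stained in a one-step fixation (final 0.05% Triton X-100, 1% formaldehyde, 1 ug/ml Hoechst) and counted on 4× images, and relative viability is the treated-to-vehicle nuclei ratio, as the median of duplicate plates.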

NCI-H1792 = tested on: NCI-H1792
In short: as §1

LXF-289 = tested on: LXF-289
In short: as §1

COR-L 105 = tested on: COR-L 105
In short: as §1

NCI-H2009 = tested on: NCI-H2009
In short: as §1

SK-LU-1 = tested on: SK-LU-1
In short: as §1

LC-2-ad = tested on: LC-2-ad
In short: as §1

EPLC-272H = tested on: EPLC-272H
In short: as §1

HOP-62 = tested on: HOP-62
In short: as §1

NCI-H460 = tested on: NCI-H460
In short: as §1

HCC-78 = tested on: HCC-78
In short: as §1

A-427 = tested on: A-427
In short: as §1

HCC-366 = tested on: HCC-366
In short: as §1

NCI-H1666 = tested on: NCI-H1666
In short: as §1

NCI-H1915 = tested on: NCI-H1915
In short: as §1

LU99A = tested on: LU99A
In short: as §1

UMC-11 = tested on: UMC-11
In short: as §1

With `Nc1ccn([C@@H]2O[C@H](CO)[C@@H](O)[C@@H]2O)c(=O)n1` [Cytarabine] + CC(C)C[C@H](NC(=O)[C@H](Cc1ccccc1)NC(=O)c1cnccn1)B(O)O [Bortezomib] (partner 0.002 µM) the relative viability (NCI-H2085; first compound 0.005 µM) was 0.983, the relative viability (NCI-H2085; first compound 0.01581 µM) was 0.913 and the relative viability (NCI-H2085; first compound 0.05 µM) was 0.946. For the same molecule, the relative viability (NCI-H2085; first compound 0.1581 µM) was 0.631, the relative viability (NCI-H2085; first compound 0.5 µM) was 0.66 and the relative viability (NCI-H1792; first compound 0.005 µM) was 0.925. It also gave a relative viability (NCI-H1792; first compound 0.01581 µM) of 0.93, a relative viability (NCI-H1792; first compound 0.05 µM) of 0.795 and a relative viability (NCI-H1792; first compound 0.1581 µM) of 0.565. It also gave a relative viability (NCI-H1792; first compound 0.5 µM) of 0.55, a relative viability (LXF-289; first compound 0.005 µM) of 0.887 and a relative viability (LXF-289; first compound 0.01581 µM) of 0.936. The relative viability (LXF-289; first compound 0.05 µM) was 0.901, the relative viability (LXF-289; first compound 0.1581 µM) was 0.474 and the relative viability (LXF-289; first compound 0.5 µM) was 0.258. The relative viability (COR-L 105; first compound 0.005 µM) was 0.676, the relative viability (COR-L 105; first compound 0.01581 µM) was 0.699 and the relative viability (COR-L 105; first compound 0.05 µM) was 0.464. It also gave a relative viability (COR-L 105; first compound 0.1581 µM) of 0.399, a relative viability (COR-L 105; first compound 0.5 µM) of 0.285 and a relative viability (NCI-H2009; first compound 0.005 µM) of 1.05. It also gave a relative viability (NCI-H2009; first compound 0.01581 µM) of 1.03, a relative viability (NCI-H2009; first compound 0.05 µM) of 0.952 and a relative viability (NCI-H2009; first compound 0.1581 µM) of 0.634. It also gave a relative viability (NCI-H2009; first compound 0.5 µM) of 0.311, a relative viability (SK-LU-1; first compound 0.005 µM) of 0.818 and a relative viability (SK-LU-1; first compound 0.01581 µM) of 0.69. For the same molecule, the relative viability (SK-LU-1; first compound 0.05 µM) was 0.558, the relative viability (SK-LU-1; first compound 0.1581 µM) was 0.393 and the relative viability (SK-LU-1; first compound 0.5 µM) was 0.296. The relative viability (LC-2-ad; first compound 0.005 µM) was 1.01, the relative viability (LC-2-ad; first compound 0.01581 µM) was 0.888 and the relative viability (LC-2-ad; first compound 0.05 µM) was 0.954. It also gave a relative viability (LC-2-ad; first compound 0.1581 µM) of 0.434, a relative viability (LC-2-ad; first compound 0.5 µM) of 0.145 and a relative viability (EPLC-272H; first compound 0.005 µM) of 0.906. For the same molecule, the relative viability (EPLC-272H; first compound 0.01581 µM) was 0.831, the relative viability (EPLC-272H; first compound 0.05 µM) was 0.53 and the relative viability (EPLC-272H; first compound 0.1581 µM) was 0.412. The relative viability (EPLC-272H; first compound 0.5 µM) was 0.453, the relative viability (HOP-62; first compound 0.005 µM) was 0.58 and the relative viability (HOP-62; first compound 0.01581 µM) was 0.291. It also gave a relative viability (HOP-62; first compound 0.05 µM) of 0.208, a relative viability (HOP-62; first compound 0.1581 µM) of 0.174 and a relative viability (HOP-62; first compound 0.5 µM) of 0.0493. For the same molecule, the relative viability (NCI-H460; first compound 0.005 µM) was 0.677, the relative viability (NCI-H460; first compound 0.01581 µM) was 0.968 and the relative viability (NCI-H460; first compound 0.05 µM) was 0.265. The relative viability (NCI-H460; first compound 0.1581 µM) was 0.028, the relative viability (NCI-H460; first compound 0.5 µM) was 0.0192 and the relative viability (HCC-78; first compound 0.005 µM) was 0.569. The relative viability (HCC-78; first compound 0.01581 µM) was 0.444, the relative viability (HCC-78; first compound 0.05 µM) was 0.445 and the relative viability (HCC-78; first compound 0.1581 µM) was 0.378. The relative viability (HCC-78; first compound 0.5 µM) was 0.252, the relative viability (A-427; first compound 0.005 µM) was 0.752 and the relative viability (A-427; first compound 0.01581 µM) was 0.46. It also gave a relative viability (A-427; first compound 0.05 µM) of 0.276, a relative viability (A-427; first compound 0.1581 µM) of 0.171 and a relative viability (A-427; first compound 0.5 µM) of 0.166. It also gave a relative viability (HCC-366; first compound 0.005 µM) of 1.16, a relative viability (HCC-366; first compound 0.01581 µM) of 0.911 and a relative viability (HCC-366; first compound 0.05 µM) of 0.479. For the same molecule, the relative viability (HCC-366; first compound 0.1581 µM) was 0.0971, the relative viability (HCC-366; first compound 0.5 µM) was 0.036 and the relative viability (NCI-H1666; first compound 0.005 µM) was 0.7. It also gave a relative viability (NCI-H1666; first compound 0.01581 µM) of 0.705, a relative viability (NCI-H1666; first compound 0.05 µM) of 0.741 and a relative viability (NCI-H1666; first compound 0.1581 µM) of 0.353. The relative viability (NCI-H1666; first compound 0.5 µM) was 0.318, the relative viability (NCI-H1915; first compound 0.005 µM) was 0.74 and the relative viability (NCI-H1915; first compound 0.01581 µM) was 0.952. For the same molecule, the relative viability (NCI-H1915; first compound 0.05 µM) was 0.8, the relative viability (NCI-H1915; first compound 0.1581 µM) was 0.385 and the relative viability (NCI-H1915; first compound 0.5 µM) was 0.25. It also gave a relative viability (LU99A; first compound 0.005 µM) of 1.14, a relative viability (LU99A; first compound 0.01581 µM) of 1.24 and a relative viability (LU99A; first compound 0.05 µM) of 1.26. For the same molecule, the relative viability (LU99A; first compound 0.1581 µM) was 1.01, the relative viability (LU99A; first compound 0.5 µM) was 1.03 and the relative viability (UMC-11; first compound 0.005 µM) was 0.339. For the same molecule, the relative viability (UMC-11; first compound 0.01581 µM) was 0.381, the relative viability (UMC-11; first compound 0.05 µM) was 0.341 and the relative viability (UMC-11; first compound 0.1581 µM) was 0.155. The relative viability (UMC-11; first compound 0.5 µM) was 0.155.
